Laboratory results: patent publication US9738634B2, “Heterocyclic amide compound and herbicide” (SYNGENTA PARTICIPATIONS AG, priority 2013, dated 2017)

Key:
Type in all cases: in vivo
Details in all cases: treatment dosage 320 g/ha
[1] = system: birds-eye speedwell; assay: Test Example 4: weedkilling efficacy by foliar treatment; p: birds-eye speedwell
How it was run: (§1)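 Seeds are spot-sown into sterilized diluvial soil and covered with about 1.5 cm of soil. After 14 days' greenhouse growth at 25 to 30° C, plants are sprayed on stems and leaves with diluted emulsion at the stated g/ha rate, then scored at 3 weeks.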

[2] = system: chickweed; assay: Test Example 4: weedkilling efficacy by foliar treatment; N: chickweed
How it was run: as §1

[3] = system: common wind-grass; assay: Test Example 3: weedkilling efficacy through soil treatment; J: common wind-grass
How it was run: (§2)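 Crop and weed responses were judged three weeks after a uniform surface spray of the water-diluted emulsion at the given g/ha rate. Seeds sat beneath about 1.5 cm of sterilized diluvial soil, and boxes stood in a greenhouse at 25 to 30° C.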

[4] = system: barnyard grass; assay: Test Example 2: weedkilling efficacy, growth period weed treatment in the submerged state; A: barnyard grass
How it was run: (§3)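 Seedlings at 1-2 leaves in 4 cm-deep submerged alluvial soil received emulsion formulations on the water surface, dosed per hectare; effects were judged 3 weeks on.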

[5] = system: oval-leafed pondweed; assay: Test Example 1: weedkilling efficacy, preemergent weed treatment in the submerged state; C: oval-leafed pondweed
How it was run: (§4)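 Pre-emergence paddy test: weed seeds sown in submerged alluvial soil (4 cm water), 2.5-leaf rice transplanted, water-diluted emulsion applied to water surface at sowing at stated g/ha. Scored at 3 weeks, greenhouse 25–30 °C.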

[6] = system: corn; assay: Test Example 4: foliar treatment, effect on crop; c: corn
How it was run: as §1

[7] = system: soybean; assay: Test Example 3: soil treatment, effect on crop; d: soybean
How it was run: as §2

[8] = system: rapeseed; assay: Test Example 3: soil treatment, effect on crop; g: rapeseed
How it was run: as §2

[9] = system: barnyard grass; assay: Test Example 4: weedkilling efficacy by foliar treatment; F: barnyard grass
How it was run: as §1

[10] = system: Indian mallow; assay: Test Example 4: weedkilling efficacy by foliar treatment; K: Indian mallow
How it was run: as §1

[11] = system: corn; assay: Test Example 3: soil treatment, effect on crop; c: corn
How it was run: as §2

[12] = system: wheat; assay: Test Example 3: soil treatment, effect on crop; e: wheat
How it was run: as §2

[13] = system: common wind-grass; assay: Test Example 4: weedkilling efficacy by foliar treatment; J: common wind-grass
How it was run: as §1

[14] = system: transplanted rice; assay: Test Example 1: preemergent weed treatment in the submerged state, effect on crop; a: transplanted rice
How it was run: as §4

[15] = system: directly sown rice; assay: Test Example 3: soil treatment, effect on crop; b: directly sown rice
How it was run: as §2

[16] = system: beet; assay: Test Example 3: soil treatment, effect on crop; f: beet
How it was run: as §2

[17] = system: wheat; assay: Test Example 4: foliar treatment, effect on crop; e: wheat
How it was run: as §1

[18] = system: barnyard grass; assay: Test Example 3: weedkilling efficacy through soil treatment; F: barnyard grass
How it was run: as §2

[19] = system: oval-leafed pondweed; assay: Test Example 2: weedkilling efficacy, growth period weed treatment in the submerged state; C: oval-leafed pondweed
How it was run: as §3

[20] = system: green foxtail; assay: Test Example 3: weedkilling efficacy through soil treatment; E: green foxtail
How it was run: as §2

[21] = system: directly sown rice; assay: Test Example 4: foliar treatment, effect on crop; b: directly sown rice
How it was run: as §1

[22] = system: fig-leafed goosefoot; assay: Test Example 3: weedkilling efficacy through soil treatment; M: fig-leafed goosefoot
How it was run: as §2

[23] = system: wild oat; assay: Test Example 4: weedkilling efficacy by foliar treatment; G: wild oat
How it was run: as §1

[24] = system: bulrush; assay: Test Example 1: weedkilling efficacy, preemergent weed treatment in the submerged state; B: bulrush
How it was run: as §4

[25] = system: wild oat; assay: Test Example 3: weedkilling efficacy through soil treatment; G: wild oat
How it was run: as §2

[26] = system: green foxtail; assay: Test Example 4: weedkilling efficacy by foliar treatment; E: green foxtail
How it was run: as §1

[27] = system: Italian ryegrass; assay: Test Example 3: weedkilling efficacy through soil treatment; I: Italian ryegrass
How it was run: as §2

[28] = system: barnyard grass; assay: Test Example 1: weedkilling efficacy, preemergent weed treatment in the submerged state; A: barnyard grass
How it was run: as §4

[29] = system: crabgrass; assay: Test Example 4: weedkilling efficacy by foliar treatment; D: crabgrass
How it was run: as §1

[30] = system: Indian mallow; assay: Test Example 3: weedkilling efficacy through soil treatment; K: Indian mallow
How it was run: as §2

[31] = system: beet; assay: Test Example 4: foliar treatment, effect on crop; f: beet
How it was run: as §1

[32] = system: crabgrass; assay: Test Example 3: weedkilling efficacy through soil treatment; D: crabgrass
How it was run: as §2

[33] = system: chickweed; assay: Test Example 3: weedkilling efficacy through soil treatment; N: chickweed
How it was run: as §2

[34] = system: bulrush; assay: Test Example 2: weedkilling efficacy, growth period weed treatment in the submerged state; B: bulrush
How it was run: as §3

[35] = system: fig-leafed goosefoot; assay: Test Example 4: weedkilling efficacy by foliar treatment; M: fig-leafed goosefoot
How it was run: as §1

[36] = system: rapeseed; assay: Test Example 4: foliar treatment, effect on crop; g: rapeseed
How it was run: as §1

[37] = system: birds-eye speedwell; assay: Test Example 3: weedkilling efficacy through soil treatment; p: birds-eye speedwell
How it was run: as §2

[38] = system: catchweed; assay: Test Example 4: weedkilling efficacy by foliar treatment; O: catchweed
How it was run: as §1

[39] = system: soybean; assay: Test Example 4: foliar treatment, effect on crop; d: soybean
How it was run: as §1

[40] = system: redroot pigweed; assay: Test Example 4: weedkilling efficacy by foliar treatment; L: redroot pigweed
How it was run: as §1

[41] = system: redroot pigweed; assay: Test Example 3: weedkilling efficacy through soil treatment; L: redroot pigweed
How it was run: as §2

[42] = system: Italian ryegrass; assay: Test Example 4: weedkilling efficacy by foliar treatment; I: Italian ryegrass
How it was run: as §1

[43] = system: black-grass; assay: Test Example 4: weedkilling efficacy by foliar treatment; H: black-grass
How it was run: as §1

[44] = system: black-grass; assay: Test Example 3: weedkilling efficacy through soil treatment; H: black-grass
How it was run: as §2

SMILES: CC1=C(c2ccccc2)C(=O)N(C(C)(C)C(=O)Nc2cc(C(F)(F)F)cc(F)n2)CO1 [B-2-40]
- P (birds-eye speedwell) weedkilling efficacy grade [1]: 4 (weed kill ratio 70% or more, less than 90%)
- N (chickweed) weedkilling efficacy grade [2]: 4 (weed kill ratio 70% or more, less than 90%)
- J (common wind-grass) weedkilling efficacy grade [3]: 5 (weed kill ratio 90% or more, (practically complete withering))
- A (barnyard grass) weedkilling efficacy grade [4]: 5 (weed kill ratio 90% or more, (practically complete withering))
- C (oval-leafed pondweed) weedkilling efficacy grade [5]: 5 (weed kill ratio 90% or more, (practically complete withering))
- c (corn) effect on crop grade [6]: 5 (weed kill ratio 90% or more, (practically complete withering))
- d (soybean) effect on crop grade [7]: 2 (weed kill ratio 20% or more, less than 40%)
- g (rapeseed) effect on crop grade [8]: 4 (weed kill ratio 70% or more, less than 90%)
- F (barnyard grass) weedkilling efficacy grade [9]: 5 (weed kill ratio 90% or more, (practically complete withering))
- K (Indian mallow) weedkilling efficacy grade [10]: 5 (weed kill ratio 90% or more, (practically complete withering))
- c (corn) effect on crop grade [11]: 0 (weed kill ratio 5% or less (practically no effect))
- e (wheat) effect on crop grade [12]: 0 (weed kill ratio 5% or less (practically no effect))
- J (common wind-grass) weedkilling efficacy grade [13]: 5 (weed kill ratio 90% or more, (practically complete withering))
- a (transplanted rice) effect on crop grade [14]: 3 (weed kill ratio 40% or more, less than 70%)
- b (directly sown rice) effect on crop grade [15]: 5 (weed kill ratio 90% or more, (practically complete withering))
- f (beet) effect on crop grade [16]: 3 (weed kill ratio 40% or more, less than 70%)
- e (wheat) effect on crop grade [17]: 1 (weed kill ratio 5% or more, less than 20%)
- F (barnyard grass) weedkilling efficacy grade [18]: 5 (weed kill ratio 90% or more, (practically complete withering))
- C (oval-leafed pondweed) weedkilling efficacy grade [19]: 5 (weed kill ratio 90% or more, (practically complete withering))
- E (green foxtail) weedkilling efficacy grade [20]: 5 (weed kill ratio 90% or more, (practically complete withering))
- b (directly sown rice) effect on crop grade [21]: 5 (weed kill ratio 90% or more, (practically complete withering))
- M (fig-leafed goosefoot) weedkilling efficacy grade [22]: 5 (weed kill ratio 90% or more, (practically complete withering))
- G (wild oat) weedkilling efficacy grade [23]: 5 (weed kill ratio 90% or more, (practically complete withering))
- B (bulrush) weedkilling efficacy grade [24]: 5 (weed kill ratio 90% or more, (practically complete withering))
- G (wild oat) weedkilling efficacy grade [25]: 5 (weed kill ratio 90% or more, (practically complete withering))
- E (green foxtail) weedkilling efficacy grade [26]: 5 (weed kill ratio 90% or more, (practically complete withering))
- I (Italian ryegrass) weedkilling efficacy grade [27]: 5 (weed kill ratio 90% or more, (practically complete withering))
- A (barnyard grass) weedkilling efficacy grade [28]: 5 (weed kill ratio 90% or more, (practically complete withering))
- D (crabgrass) weedkilling efficacy grade [29]: 5 (weed kill ratio 90% or more, (practically complete withering))
- K (Indian mallow) weedkilling efficacy grade [30]: 5 (weed kill ratio 90% or more, (practically complete withering))
- f (beet) effect on crop grade [31]: 4 (weed kill ratio 70% or more, less than 90%)
- D (crabgrass) weedkilling efficacy grade [32]: 5 (weed kill ratio 90% or more, (practically complete withering))
- N (chickweed) weedkilling efficacy grade [33]: 4 (weed kill ratio 70% or more, less than 90%)
- B (bulrush) weedkilling efficacy grade [34]: 5 (weed kill ratio 90% or more, (practically complete withering))
- M (fig-leafed goosefoot) weedkilling efficacy grade [35]: 5 (weed kill ratio 90% or more, (practically complete withering))
- g (rapeseed) effect on crop grade [36]: 4 (weed kill ratio 70% or more, less than 90%)
- P (birds-eye speedwell) weedkilling efficacy grade [37]: 5 (weed kill ratio 90% or more, (practically complete withering))
- O (catchweed) weedkilling efficacy grade [38]: 5 (weed kill ratio 90% or more, (practically complete withering))
- d (soybean) effect on crop grade [39]: 5 (weed kill ratio 90% or more, (practically complete withering))
- L (redroot pigweed) weedkilling efficacy grade [40]: 5 (weed kill ratio 90% or more, (practically complete withering))
- L (redroot pigweed) weedkilling efficacy grade [41]: 4 (weed kill ratio 70% or more, less than 90%)
- I (Italian ryegrass) weedkilling efficacy grade [42]: 5 (weed kill ratio 90% or more, (practically complete withering))
- H (black-grass) weedkilling efficacy grade [43]: 5 (weed kill ratio 90% or more, (practically complete withering))
- H (black-grass) weedkilling efficacy grade [44]: 5 (weed kill ratio 90% or more, (practically complete withering))
